This is an account of results in patent US12005125B2, “Nanoparticles for use in photodynamic therapies and methods of making, evaluating and using the same” (Mi2 Holdings LLC, priority 2020, dated 2024).

A short description of data set [1]: ADMA fluorescent probe test: rate of total Type 1 and 2 ROS production by an illuminated photosensitizer (k-value). The data set is classed as physicochemical. As to conditions: for k (rate constant of Type 1 and 2 ROS production, slope of Ln(I/I0) of ADMA vs time): free PS illuminated at the wavelength of its maxima, [PS] E-6 (clinically relevant 1-2 uM); for k′ (k/kstd): relative to methylene blue (MB) as standard; for k″ (1−k′): x coordinate of PS grid, MB = origin. An excerpt: (§1) Discussed below are evaluations methods and system for evaluating a PS for Type ½ Production. The above describes the parameters that would best define an ideal practical PS. […] This can be semi-quantitatively analyzed using fluorescent molecular probes that scavenge Type ½ ROS. Two specific probes ideal for this are 9,10-anthracene bis(methylene) dimalonic acid (ADMA) and singlet oxygen sensor green (SOSG).
(§2) Anthracene and its derivatives are sensitive to both Type 1 and Type 2 ROS, while SOSG is specifically for Type 2 ROS studies.^9 By tracking the fluorescent changes of these probes over time, the Type ½ ROS and rates of production by a set of PSs can be directly compared in a semi-quantitative manner. In the work to follow, AMDA is the anthracene derivative utilized.
ADMA decays according to first order rate law kinetics. As such, the rate of total Type 1 and 2 ROS may be studied by tracking its fluorescence loss over time as a natural log, yielding a linear plot whose slope is the rate constant of Type 1 and 2 ROS production (referred to as the k-value). The greater the rate constant, the more Type 1 and Type 2 ROS being produced, and thus PSs compared under identical conditions (equivalent [PS], [02], flux, temp) can be semi-quantitatively compared.
(§3) Combining the findings of the SOSG and ADMA tests, semi-quantitative comparisons and estimates about the performance of PSs in a given set may be extrapolated, when performed under identical conditions (equivalent [PS], [O2], flux, temp). This will aid in choosing a PS that maximizes PDT efficacy by showing it has a minimum of Type 1 ROS and maximum of Type 2 ROS production, while also producing at a sufficient rate to efficiently ablate tissue.
(§4) The exact method of study is as follows, using a factory default Horiba Duetta:
(§5) 3. Pulse the molecular probe for initial fluorescence
(§6) • a. Simple fluorescence scan • b. […] Ex/Em slits for both=⅔ nm, Integration for 1 second, 5 scans • e. The peak of highest counts is used 2. The PS is illuminated using the wavelength of its maxima for a set amount of time • a. Fixed wavelength fluorescent study mode; choose a time point desired • b. Ex/Em bandwidth=10/1 nm 4. Pulse the molecular probe for fluorescent changes 5. Repeat Steps 2 and 3 until the range time values desired is covered 6. Treat the data • a. Anthracene=Ln(I/I0) vs time; slope=k-value • b. SOSG=I/I0 vs time; slope=S-value
(§7) Using a PS as an assigned origin (standard by which all other PSs are compared to), any PS may be charted by comparing the k and S-values (k/kstd=k′, S/Sstd=S′, k″=1−k′, S″=S′−1) at clinically relevant concentrations (1-2 uM). By plotting the k″ and S″ values as x,y coordinates (respectively), the semi-quantitative comparison of PSs against each other may be directly visualized; the origin PS will have a position of 0,0. The x-axis will then stretch from −∞ to 1, and y-axis from −1 to ∞.

Data set [2] in a line: SOSG (singlet oxygen sensor green) fluorescent probe test: Type 2 ROS production by an illuminated photosensitizer (S-value). The data set is classed as physicochemical. As to conditions: for S (slope of SOSG I/I0 vs time, Type 2 ROS production): free PS illuminated at the wavelength of its maxima, [PS] E-6 (clinically relevant 1-2 uM); for S′ (S/Sstd): relative to methylene blue (MB) as standard; for S″ (S′−1): y coordinate of PS grid, MB = origin.
Description: as §1, §2
SOSG functions in a manner opposite to that of the anthracene probe; instead of a fluorescence loss, SOSG experiences a fluorescence enhancement when interacting with Type 2 ROS; Type 1 ROS has no effect. […] Therefore, the steeper the slope (S-value), the more Type 2 ROS being produced.
as §3, §4, §5, §6, §7

For data set [3] the following is noted: cited from earlier work.
For data set [4] the following is noted: when covalently conjugated to 8PEGA; cited from earlier work.

Take `CN(C)c1ccc2nc3ccc(=[N+](C)C)cc-3sc2c1` [MB, Methylene blue]: in data set [1], the “k (rate constant of Type 1 and 2 ROS production, slope of Ln(I/I0) of ADMA vs time)” value is 6.13 E-4 s^−1; the “k′ (k/kstd)” value came out at 1; the “k″ (1−k′)” value was 0.00. For the same compound, in data set [2], the “S (slope of SOSG I/I0 vs time, Type 2 ROS production)” value is on record as 0.46 E−2 s^−1; the “S′ (S/Sstd)” value was determined as 1; the “S″ (S′−1)” value was 0.00.

`CCNc1cc2[s+]c3cc(NCC)c(C)cc3nc2cc1C.[Cl-]` [NMB, New Methylene Blue]: in data set [1], the “k (rate constant of Type 1 and 2 ROS production, slope of Ln(I/I0) of ADMA vs time)” value was 12.1 E-4 s^−1; the “k′ (k/kstd)” value is reported as 1.97; the “k″ (1−k′)” value is on record as −0.97. Moreover, in data set [2], the “S (slope of SOSG I/I0 vs time, Type 2 ROS production)” value is listed as 0.96 E−2 s^−1; the “S′ (S/Sstd)” value is on record as 2.09; the “S″ (S′−1)” value amounted to 1.09.

Take IRDye 700DX HHS Ester [IR700]: the “k-vlaue (E-4)” value in data set [1] ([PS] 3.99E−06) is reported as 2.62 E-4. Further, in data set [1], the “k (rate constant of Type 1 and 2 ROS production, slope of Ln(I/I0) of ADMA vs time)” value is listed as 1.83 E-4 s^−1; the “k′ (k/kstd)” value worked out at 0.299; the “k″ (1−k′)” value is recorded as 0.70. For the same compound, in data set [2] ([PS] 3.91E−06), the “SOSG (E-2)” value is 2.89 E-2. In data set [2], the “S (slope of SOSG I/I0 vs time, Type 2 ROS production)” value is 2.04 E−2 s^−1; the “S′ (S/Sstd)” value is recorded as 4.43; the “S″ (S′−1)” value was 3.43. In data set [3], the solubility in water entry was “water soluble, having good solubility”.

Consider Chlorin e6 [Ce6], for which, in data set [1], the “k (rate constant of Type 1 and 2 ROS production, slope of Ln(I/I0) of ADMA vs time)” value was 0.94 E-4 s^−1; the “k′ (k/kstd)” value worked out at 0.153; the “k″ (1−k′)” value is 0.85. Further, in data set [2], the “S (slope of SOSG I/I0 vs time, Type 2 ROS production)” value is 0.73 E−2 s^−1; the “S′ (S/Sstd)” value stood at 1.59; the “S″ (S′−1)” value worked out at 0.59. In addition, the k-values entry in data set [4] is “improved”. Also, the “solubility in aqueous media” value in data set [3] (when covalently conjugated to 8PEGA) is “markedly enhanced”.

Take Verteporfin: in data set [1], the “k (rate constant of Type 1 and 2 ROS production, slope of Ln(I/I0) of ADMA vs time)” value is 0.16 E-4 s^−1; the “k′ (k/kstd)” value was found to be 0.03; the “k″ (1−k′)” value was 0.97. Further, in data set [2], the “S (slope of SOSG I/I0 vs time, Type 2 ROS production)” value was 0.06 E−2 s^−1; the “S′ (S/Sstd)” value amounted to 0.13; the “S″ (S′−1)” value is given as −0.87.
